From ChEMBL document CHEMBL3585254, “Synthesis and structural characterization of natural benzofuranoids” (J Nat Prod, 2015)

System: HL-60
Assay: Growth inhibition of human HL60 cells
Assay type: functional, cell-based

IC50: 130 nM
SMILES: CC(C)=C1Oc2c(ccc(CC(C)O)c2CO)C1=O (stereo unspecified) [USTUSORANE A]
